Reference: patent US5445951A, “Regioselective enzymatic deacylation of sucrose esters in anhydrous organic media” (priority 1993, dated 1995)
“And” between values parts separate entries of the source, which are not always exact repeats. Identical values can stand only once. Like-named read-outs stand apart in the source and are kept apart here. Each block holds one molecule with its values, some of them ahead of it.

Assays:
[1] = tested on: proleather; test: Solvent effect on proleather catalyzed deacetylation of SOA; type: biochemical, Bacillus subtilis; conditions: 24 hrs; for SheptaA: total of 1'-OH and 6'-OH heptaacetates; for SOA / ShexaA: solvent as labelled
Method: (§1) Identical enzyme catalyzed SOA deacetylations were run in numerous anhydrous solvents. After 24 hrs incubation an aliquot was analyzed by HPLC.
(§2) The pH of commercial powdered enzymes was adjusted in the following way: The enzyme (3 g) was dissolved in 25 ml of an appropriate buffer and the pH adjusted with dilute NaOH or citric/phosphoric acid solution. Cold acetone (37.5 ml at -20° C.) was added and the precipitate collected on a medium porosity glass funnel and dried overnight at 2 millitorr. The protein pellet was ground to a fine powder and equilibrated at 4° C. over saturated aqueous potassium carbonate (RH: 43%) for 24 hrs.
(§3) Enzyme and Solvent Screening for SOA Deacetylation. A scintillation vial was charged successively with 100 mg of powdered enzyme as received or prepared as described and 1.0 ml of 20 mM sucrose octaacetate (SOA) dissolved in an organic solvent. Following a 5 sec sonication, the vial was incubated in a controlled-temperature shaker at 45° C. and 300 RPM for 24 hrs. A 200 μl aliquot of the reaction mixture was withdrawn and centrifuged. The supernatant was collected and evaporated under a stream of N2. The residue was reconstituted in 200 μl of acetonitrile and 10 μl of this solution was analyzed by HPLC.

[2] = tested on: lipase AY 30 deposited on Hyflo Super Cell; test: Solvent effect on lipase AY 30 deposited on Hyflo Super Cell catalyzed deacetylation of SOA; type: biochemical, Candida cylindracea; conditions: immobilized lipase AY 30, 24 hrs
Method: (§4) Alcalase and lipase AY 30 were deposited on Hyflo Super Cell and used as catalysts for SOA deacetylation reactions in several anhydrous solvents.
(§5) Enzyme immobilization. The pH of a solution of 900 mg of buffered alcalase in 18 ml of water was adjusted to 9.0 with dilute NaOH. Hyflo super cell (6 g) was added and the slurry thoroughly mixed. […] Lipase AY 30 was immobilized in the same manner except that the protein solution was adjusted to pH 7.0 with sodium phosphate.
as §3

[3] = biological target: T1, alcalase (Bacillus licheniformis, UniProt P00780); test: Solvent effect on alcalase catalyzed deacetylation of SOA; type: biochemical; conditions: 24 hrs; for SheptaA: total of 1'-OH and 6'-OH heptaacetates; for SOA / ShexaA: solvent as labelled
T1 construct: purchased Novo Nordisk (gift)
T1 sequence (P00780 106-379): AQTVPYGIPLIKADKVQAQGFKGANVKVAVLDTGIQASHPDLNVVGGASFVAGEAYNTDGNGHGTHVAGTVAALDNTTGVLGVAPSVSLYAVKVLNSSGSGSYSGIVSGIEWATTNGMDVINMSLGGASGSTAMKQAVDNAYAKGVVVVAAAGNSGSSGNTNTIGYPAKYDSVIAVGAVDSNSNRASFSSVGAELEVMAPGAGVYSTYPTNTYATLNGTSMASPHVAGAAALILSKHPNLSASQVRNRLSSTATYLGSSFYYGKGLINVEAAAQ
Method: as §1
Enzyme Precipitation. Alcalase was prepared by adding 37.5 ml cold acetone (-20° C.) to 25 ml of alcalase solution as supplied by Novo. The aqueous acetone was decanted and the residue dissolved in 25 ml of pH 9.0 glycine--NaOH buffer. The pH of this solution was adjusted to 9.0 with a few drops of dilute NaOH solution. Cold acetone (37.5 ml at -20° C.) was added to the buffered alcalase solution and the precipitate collected by filtration on a medium porosity glass funnel and dried overnight at 2 millitorr. The resulting pellet was ground to a fine powder and stored at 4° C. over saturated aqueous potassium carbonate (RH: 43%) for 24 hrs.
as §3

[4] = tested on: lipase AP 12; test: Solvent effect on lipase AP 12 catalyzed deacetylation of SOA; type: biochemical, Aspergillus niger; conditions: lipase AP 12, solvent as labelled, 24 hrs
Method: as §1, §2, §3

[5] = tested on: alcalase deposited on Hyflo Super Cell; test: Solvent effect on alcalase deposited on Hyflo Super Cell catalyzed deacetylation of SOA; type: biochemical, Bacillus licheniformis; conditions: immobilized alcalase, 4 hour incubation; for SheptaA: total of 1'-OH and 6'-OH heptaacetates
Method: as §4, §5
as §3, with “Following a 5 sec sonication, the vial was incubated in a controlled-temperature shaker at 45° C. and 300 RPM for 24 hrs.” left out

[6] = n-octanol/water, cited from earlier work
[7] = tested on: lipase AY 30; test: Effect of the solvent on lipase AY 30 catalyzed deacylation of SOP; type: biochemical, Candida cylindracea; conditions: for ShexaP (4.2 min) / SheptaP's (8.9 min) / SheptaP's (9.4 min) / SheptaP's ([…]): lipase AY 30, 24 hrs; for ShexaP (4.2 min): HPLC peak 4.2 min; for SheptaP's (8.9 min): HPLC peak 8.9 min; for SheptaP's (9.4 min): HPLC peak 9.4 min; for SheptaP's ([…]): HPLC peak […]; for SOA: lipase AY 30, solvent as labelled, 200 mM butanol, 24 hrs, peak 21.4 min; on SheptaP's ([…]): HPLC peak 8.2 min
Method: Identical SOP deacylations were performed with lipase AY 30 or protease type XXIII in numerous anhydrous organic solvents, as shown in Tables 12 and 13.
as §3, with “Solvent” for “Enzyme and Solvent”, “screening” for “Screening”, “SOP deacylation.” for “SOA Deacetylation.”, “lipase AY 30” for “powdered enzyme as received”, “protease type XXIII” for “prepared”, “octapropionate (SOP) and 200mM butanol” for “octaacetate (SOA)”

[8] = tested on: lipase AY 30; test: Effect of the solvent on lipase AY 30 SOA deacetylation; type: biochemical, Candida cylindracea; conditions: lipase AY 30, solvent as labelled, 24 hrs
Method: as §1, §3

[9] = tested on: lipase AP 12; test: Nucleophile screening for lipase AP 12 catalyzed deacetylation of SOA in diisopropyl ether; type: biochemical, Aspergillus niger; conditions: for % conv: 66 hrs
Method: (§6) Nucleophile screening for alcalase, proleather or lipase AP 12 catalyzed deacetylation of SOA. A scintillation vial was charged successively with 100 mg of powdered enzyme prepared as described, 1.0 ml of 20 mM sucrose octaacetate (SOA) and 200 mM of the nucleophile dissolved in diisopropyl ether. Following a 5 sec sonication, the vial was incubated in a controlled-temperature shaker at 45° C. and 300 RPM for 66 hrs. A 200 μl aliquot of the reaction mixture was withdrawn and centrifuged. The supernatant was collected and evaporated under a stream of N2. The residue was reconstituted in 200 μl of acetonitrile and 10 μl of this solution was analyzed by HPLC. For screening concentration effects on enzyme activity, the same protocol was followed except the nucleophile concentration was varied from 0 to 2000 mM.

[10] = tested on: proleather; test: Nucleophile screening for proleather catalyzed deacetylation of SOA in diisopropyl ether; type: biochemical, Bacillus subtilis; conditions: for % conv: 66 hrs
Method: as §6

[11] = biological target: T1, alcalase; test: Nucleophile screening for alcalase catalyzed deacetylation of SOA in diisopropyl ether; type: biochemical; conditions: for increase in conversion relative to reaction with no added nucleophile: 200 mM
Method: as §6

[12] = lipase AP 12, nucleophile 200 mM
[13] = nucleophile 200 mM, peak height ratio 1'-OH / 6'-OH heptaacetate
[14] = methanol 20 mM, peak height ratio
[15] = methanol 50 mM, peak height ratio
[16] = methanol 100 mM, peak height ratio
[17] = methanol 200 mM (Table 10), peak height ratio
[18] = methanol 500 mM, peak height ratio
[19] = methanol 1000 mM, peak height ratio
[20] = methanol 2000 mM, peak height ratio

SMILES: ClC(Cl)(Cl)Cl [CCl4, carbon tetrachloride]
SheptaA [1]: 9.6% | SOA [1]: 89.1% | ShexaA [1]: 1.3% | SOA [2]: 97.5% | SheptaA [2]: 2.5% | SheptaA [3]: 5.2% | SOA [3]: 94.8% | ShexaA [3]: 0% | SOA [4]: 95.1% | SheptaA [4]: 4.3% | ShexaA [4]: 0.6% | SOA [5]: 98.6% | ShexaA [5]: 0% | SheptaA [5]: 1.4% | log P ([6]; from Laane et al.): 3.0 and 3.1 | ShexaP (4.2 min) [7]: 0% | SheptaP's (8.9 min) [7]: 0% | SheptaP's (9.4 min) [7]: 0.7% | SheptaP's ([…]) [7]: 1.1% | SOA [7]: 98.2% | SOA [8]: 86.9% | SheptaA [8]: 10.4% | ShexaA [8]: 2.7%

SMILES: CC(C)NC(C)C [diisopropylamine]
% conv [9, 12]: 3.2% | % conv ([10]; nucleophile 200 mM): 37.3% | regiochem [10, 13]: 4.9 | increase in conversion relative to reaction with no added nucleophile [11]: at least 25% | regiochem [11, 13]: 9.5

SMILES: CCCO [propanol]
% conv [9, 12]: 26.2% | % conv ([10]; nucleophile 200 mM): 46.4% | regiochem [10, 13]: 5.3 | regiochem [11, 13]: 8.8

SMILES: CO [methanol]
enhancement in overall conversion ([9]; lipase AP 12, 1.0M methanol, in words): modest enhancements in overall conversion | % conv ([9]; lipase AP 12, methanol 20 mM): 22.4% | % conv ([9]; lipase AP 12, methanol 50 mM): 23.5% | % conv ([9]; lipase AP 12, methanol 100 mM): 25.7% | % conv ([9]; lipase AP 12, methanol 200 mM (Table 10)): 24.0% | % conv ([9]; lipase AP 12, methanol 500 mM): 31.3% | % conv ([9]; lipase AP 12, methanol 1000 mM): 33.4% | % conv ([9]; lipase AP 12, methanol 2000 mM): 21.3% | % conv [9, 12]: 28.2% | increase in conversion ([10]; 1.0M methanol): 120% | % conv ([10]; methanol 20 mM): 38.1% | regiochem [10, 14]: 4.8 | % conv ([10]; methanol 50 mM): 41.2% | regiochem [10, 15]: 5.9 | % conv ([10]; methanol 100 mM): 44.6% | regiochem [10, 16]: 6.6 | % conv ([10]; methanol 200 mM (Table 10)): 49.4% | regiochem [10, 17]: 7.9 | % conv ([10]; methanol 500 mM): 65.4% | regiochem [10, 18]: 12.4 | % conv ([10]; methanol 1000 mM): 71.1% | regiochem [10, 19]: 12.6 | % conv ([10]; methanol 2000 mM): 66.8% | regiochem [10, 20]: 11.5 | % conv ([10]; nucleophile 200 mM): 53.8% | regiochem [10, 13]: 8.4 | increase in conversion relative to reaction with no added nucleophile [11]: at least 25% | enhancement in overall conversion ([11]; 0.5M methanol, in words): modest enhancements in overall conversion | regiochem [11, 14]: 7.4 | regiochem [11, 15]: 8.3 | regiochem [11, 16]: 8.1 | regiochem [11, 17]: 8.6 | regiochem [11, 18]: 8.2 | regiochem [11, 19]: 5.6 | regiochem [11, 20]: 7.1 | regiochem [11, 13]: 8.6

SheptaA [3]: 14.5% | SOA [3]: 83.9% | ShexaA [3]: 1.6% | SOA [4]: 81.8% | SheptaA [4]: 15.9% | ShexaA [4]: 2.3% | SOA [8]: 51.6% | SheptaA [8]: 32.4% | ShexaA [8]: 16.0%
SMILES: CCCOCCC [dipropyl ether]
SheptaA [1]: 21.5% | SOA [1]: 75.2% | ShexaA [1]: 3.3% | SOA [2]: 93.4% | SheptaA [2]: 6.6% | SOA [5]: 92.9% | ShexaA [5]: 0.6% | SheptaA [5]: 6.5% | log P ([6]; from Laane et al.): 1.9

SMILES: CCO [ethanol]
% conv [9, 12]: 26.7% | % conv ([10]; nucleophile 200 mM): 47.7% | regiochem [10, 13]: 5.6 | regiochem [11, 13]: 7.5

% conv [9, 12]: 24.8% | regiochem [11, 13]: 8.1
SMILES: OCC1CCCCC1 [cyclohexylmethanol]
% conv ([10]; nucleophile 200 mM): 42.8% | regiochem [10, 13]: 4.4

% conv [9, 12]: 10.4% | regiochem [11, 13]: 8.6
SMILES: OCCC1CCCCN1 (stereo not drawn) [2-piperidineethanol]
% conv ([10]; nucleophile 200 mM): 41.3% | regiochem [10, 13]: 5.1

SheptaA [3]: 3.9% | SOA [3]: 96.1% | ShexaA [3]: 0% | SOA [4]: 96.2% | SheptaA [4]: 3.8% | ShexaA [4]: 0% | SOA [8]: 86.1% | SheptaA [8]: 9.6% | ShexaA [8]: 4.3%
SMILES: COc1ccccc1 [anisole]
SheptaA [1]: 19.4% | SOA [1]: 79.2% | ShexaA [1]: 1.4% | SOA [2]: 98.2% | SheptaA [2]: 1.2% | SOA [5]: 98.0% | ShexaA [5]: 0% | SheptaA [5]: 2.0% | log P [6]: 2.1

SheptaA [3]: 22.3% | SOA [3]: 75.2% | ShexaA [3]: 2.5% | SOA [4]: 82.7% | SheptaA [4]: 15.7% | ShexaA [4]: 1.6% | ShexaP (4.2 min) [7]: 13.0% | SheptaP's (8.9 min) [7]: 1.5% | SheptaP's (9.4 min) [7]: 13.5% | SheptaP's ([…]) [7]: 17.3% | SOA [7]: 54.7% | SOA [8]: 29.6% | SheptaA [8]: 39.6% | ShexaA [8]: 30.9%
SMILES: CC(C)OC(C)C [diisopropyl ether]
SheptaA [1]: 25.9% | SOA [1]: 70.6% | ShexaA [1]: 3.5% | SOA [2]: 85.7% | SheptaA [2]: 14.3% | SOA [5]: 89.3% | ShexaA [5]: 0.8% | SheptaA [5]: 9.9% | log P [6]: 1.9

SMILES: OCc1ccccc1 [benzyl alcohol]
% conv [9, 12]: 22.5% | % conv ([10]; nucleophile 200 mM): 46.8% | regiochem [10, 13]: 6.6 | regiochem [11, 13]: 8.1

SMILES: CCCCO [butanol, n-butanol]
% conv [9, 12]: 25.7% | % conv ([10]; nucleophile 200 mM): 44.4% | regiochem [10, 13]: 4.8 | regiochem [11, 13]: 7.4
